Holding throughout (format): in vivo
In data set [1] the test system is transplanted Oryza sativa. In words: Test Example 1: effect on crop, application before weed generation in submerged conditions. Particulars: Application herbicide amount 320 g/ha; Seventeenth Table. Summed up: (§1)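 Pre-emergence water-surface application under 4 cm flooding, same day as sowing, with rice transplanted at 2.5 leaf stage. Dose given as g/ha. Plants grown at 25° C. to 30° C. and rated three weeks later on a 0 (≤5%) to 5 (≥90%) herbicidal-ratio scale.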

The test system of data set [2] is Echinochloa oryzacola Vasing. Briefly: Test Example 2: herbicidal activity, application during weed generation in submerged conditions. The following applies: Eighteenth Table; application herbicide amount 320 g/ha. Summed up:
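Scored three weeks post-application on a 0–5 scale (5: ≥90% herbicidal ratio, almost withered; 0: ≤5%). Plants raised from mixed-sown seed in submerged alluvial soil (4 cm water), 25–30 °C greenhouse; water-diluted emulsion applied onto water surface at one- to two-leaf stage, dose in g/ha.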

For data set [3], the system named is Echinochloa crus-galli var. crus-galli. Briefly: Test Example 4: herbicidal effect by application to foliage (diluvial soil, plastic box). Particulars: Application herbicide amount 320 g/ha; for H (Echinochloa crus-galli var. crus-galli) herbicidal effect grade: foliage application. In short, it runs like this: (§2)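 Seeds sown in sterilized diluvial soil, covered ~1.5 cm, grown 14 days in greenhouse at 25° C. to 30° C. Emulsion formulation diluted in water to set rate (g/ha) and sprayed onto stems and leaves. Effect scored visually 3 weeks later on 0–5 scale (5 = ≥90% herbicidal ratio, 0 = ≤5%).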

The next data set deals with Avena fatua. The data set is described as above. The following applies: Application herbicide amount 320 g/ha; for I (Avena fatua) herbicidal effect grade: foliage application. In short, it runs like this: as §2
A further data set deals with Galium spurium. Described as above. The following applies: Application herbicide amount 320 g/ha; for Q (Galium spurium) herbicidal effect grade: foliage application. Summed up: as §2
In the next data set the test system is Lolium multiflorum Lam. The description is as above. The following applies: Application herbicide amount 320 g/ha; for K (Lolium multiflorum Lam.) herbicidal effect grade: foliage application. In short, it runs like this:
as §2

The test system of data set [4] is Echinochloa oryzacola Vasing. In words: Test Example 1: herbicidal activity, application before weed generation in submerged conditions. Particulars: Application herbicide amount 320 g/ha; Seventeenth Table. Summed up:
as §1

A further data set has as its system Monochoria vaginalis. The data set is described as above. Particulars: Application herbicide amount 320 g/ha; Seventeenth Table. In short, it runs like this:
as §1

For another data set, the system named is Scirpus juncoides. The data set is described as above. The following applies: Application herbicide amount 320 g/ha; Seventeenth Table. In short, it runs like this:
as §1

Regarding `Cc1nnc(NC(=O)c2ccc(C(F)(F)F)n3c(N4CCSCC4)nnc23)o1` [1-118], the “a: transplanted Oryza sativa (effect on crop grade)” value (“a: transplanted Oryza sativa” below) in data set [1] is 2 (Herbicidal ratio of 20% or more and less than 40%). The “A (Echinochloa oryzicola Vasing.) herbicidal ratio grade” value in data set [2] was 2 (Herbicidal ratio of 20% or more and less than 40%). The “H (Echinochloa crus-galli var. crus-galli) herbicidal effect grade” value in data set [3] was 5 (Herbicidal ratio of 90% or more (almost completely withered)). Further, the “I (Avena fatua) herbicidal effect grade” value with Avena fatua is 3 (Herbicidal ratio of 40% or more and less than 70%). For the same compound, in the data set with Galium spurium, the “Q (Galium spurium) herbicidal effect grade” value is 4 (Herbicidal ratio of 70% or more and less than 90%). Besides, the “K (Lolium multiflorum Lam.) herbicidal effect grade” value in the data set on Lolium multiflorum Lam. is 1 (Herbicidal ratio of 5% or more and less than 20%). For the same compound, the “A: Echinochloa oryzicola Vasing. (herbicidal effect grade)” value in data set [4] is 3 (Herbicidal ratio of 40% or more and less than 70%). In addition, the “C: Monochoria vaginalis (herbicidal effect grade)” value (from here on “C: Monochoria vaginalis”) in the data set on Monochoria vaginalis is given as 0 (Herbicidal ratio of 5% or less (almost no effect)). Besides, the “B: Scirpus juncoides (herbicidal effect grade)” value (“B: Scirpus juncoides” below) in the data set with Scirpus juncoides was 2 (Herbicidal ratio of 20% or more and less than 40%).
As for `Cc1nnc(NC(=O)c2ccc(C(F)(F)F)n3c(CC4CC4)nnc23)o1` [1-104], the “a: transplanted Oryza sativa” value in [1] was 0 (Herbicidal ratio of 5% or less (almost no effect)). Besides, in data set [2], the “A (Echinochloa oryzicola Vasing.) herbicidal ratio grade” value was 4 (Herbicidal ratio of 70% or more and less than 90%). For the same compound, the H in data set [3] is 5 (Herbicidal ratio of 90% or more (almost completely withered)). The I in the data set with Avena fatua is 4 (Herbicidal ratio of 70% or more and less than 90%). Besides, in the data set on Galium spurium, the Q was 3 (Herbicidal ratio of 40% or more and less than 70%). In addition, the K with Lolium multiflorum Lam. was 1 (Herbicidal ratio of 5% or more and less than 20%). Further, in data set [4], the “A: Echinochloa oryzicola Vasing. (herbicidal effect grade)” value is 4 (Herbicidal ratio of 70% or more and less than 90%). The “C: Monochoria vaginalis” value in the data set on Monochoria vaginalis is 2 (Herbicidal ratio of 20% or more and less than 40%). The “B: Scirpus juncoides” value with Scirpus juncoides was 3 (Herbicidal ratio of 40% or more and less than 70%).
Regarding `CCCSc1nnc2c(C(=O)Nc3nnco3)ccc(C(F)(F)F)n12` [1-108], the “a: transplanted Oryza sativa” value in [1] is reported as 0 (Herbicidal ratio of 5% or less (almost no effect)). Further, the “A (Echinochloa oryzicola Vasing.) herbicidal ratio grade” value in [2] is 4 (Herbicidal ratio of 70% or more and less than 90%). Further, in data set [3], the “H (Echinochloa crus-galli var. crus-galli) herbicidal effect grade” value is on record as 5 (Herbicidal ratio of 90% or more (almost completely withered)). The “I (Avena fatua) herbicidal effect grade” value in the data set on Avena fatua was 2 (Herbicidal ratio of 20% or more and less than 40%). For the same compound, the “Q (Galium spurium) herbicidal effect grade” value with Galium spurium was 3 (Herbicidal ratio of 40% or more and less than 70%). Moreover, the “K (Lolium multiflorum Lam.) herbicidal effect grade” value with Lolium multiflorum Lam. was 2 (Herbicidal ratio of 20% or more and less than 40%). Besides, in data set [4], the “A: Echinochloa oryzicola Vasing. (herbicidal effect grade)” value is 5 (Herbicidal ratio of 90% or more (almost completely withered)). Moreover, the “C: Monochoria vaginalis” value in the data set with Monochoria vaginalis is 5 (Herbicidal ratio of 90% or more (almost completely withered)). In the data set on Scirpus juncoides, the “B: Scirpus juncoides” value is listed as 5 (Herbicidal ratio of 90% or more (almost completely withered)).
For `COc1cc(OC)cc(-c2nnc3c(C(=O)Nc4nnco4)ccc(C(F)(F)F)n23)c1` [1-148], the “a: transplanted Oryza sativa” value in data set [1] is 4 (Herbicidal ratio of 70% or more and less than 90%). Also, the “A (Echinochloa oryzicola Vasing.) herbicidal ratio grade” value in [2] was 5 (Herbicidal ratio of 90% or more (almost completely withered)). In [3], the “H (Echinochloa crus-galli var. crus-galli) herbicidal effect grade” value is on record as 5 (Herbicidal ratio of 90% or more (almost completely withered)). The “I (Avena fatua) herbicidal effect grade” value with Avena fatua is 1 (Herbicidal ratio of 5% or more and less than 20%). In the data set with Galium spurium, the “Q (Galium spurium) herbicidal effect grade” value is 4 (Herbicidal ratio of 70% or more and less than 90%). The “K (Lolium multiflorum Lam.) herbicidal effect grade” value with Lolium multiflorum Lam. was 3 (Herbicidal ratio of 40% or more and less than 70%). Besides, the “A: Echinochloa oryzicola Vasing. (herbicidal effect grade)” value in data set [4] is recorded as 5 (Herbicidal ratio of 90% or more (almost completely withered)). Also, the “C: Monochoria vaginalis” value in the data set with Monochoria vaginalis is given as 5 (Herbicidal ratio of 90% or more (almost completely withered)). In addition, the “B: Scirpus juncoides” value in the data set on Scirpus juncoides is 5 (Herbicidal ratio of 90% or more (almost completely withered)).
For the compound `CC(=O)OCc1nnc2c(C(=O)Nc3nnc(C)o3)ccc(C(F)(F)F)n12` [1-062], in [1], the “a: transplanted Oryza sativa” value was 0 (Herbicidal ratio of 5% or less (almost no effect)). Further, the “A (Echinochloa oryzicola Vasing.) herbicidal ratio grade” value in [2] is 2 (Herbicidal ratio of 20% or more and less than 40%). Besides, the H in [3] is on record as 5 (Herbicidal ratio of 90% or more (almost completely withered)). The I with Avena fatua is 3 (Herbicidal ratio of 40% or more and less than 70%). For the same compound, in the data set on Galium spurium, the Q was 4 (Herbicidal ratio of 70% or more and less than 90%). For the same compound, the K with Lolium multiflorum Lam. is listed as 0 (Herbicidal ratio of 5% or less (almost no effect)). Moreover, the “A: Echinochloa oryzicola Vasing. (herbicidal effect grade)” value in [4] is 3 (Herbicidal ratio of 40% or more and less than 70%). In addition, in the data set with Monochoria vaginalis, the “C: Monochoria vaginalis” value was 1 (Herbicidal ratio of 5% or more and less than 20%). For the same compound, the “B: Scirpus juncoides” value in the data set on Scirpus juncoides was 2 (Herbicidal ratio of 20% or more and less than 40%).
In the case of `CCOc1nnc2c(C(=O)Nc3nnco3)ccc(C(F)(F)F)n12` [1-112], the “a: transplanted Oryza sativa” value in data set [1] was 0 (Herbicidal ratio of 5% or less (almost no effect)). Also, the “A (Echinochloa oryzicola Vasing.) herbicidal ratio grade” value in data set [2] is 1 (Herbicidal ratio of 5% or more and less than 20%). The “H (Echinochloa crus-galli var. crus-galli) herbicidal effect grade” value in data set [3] was 2 (Herbicidal ratio of 20% or more and less than 40%). The “I (Avena fatua) herbicidal effect grade” value with Avena fatua was 0 (Herbicidal ratio of 5% or less (almost no effect)). Further, in the data set with Galium spurium, the “Q (Galium spurium) herbicidal effect grade” value is on record as 0 (Herbicidal ratio of 5% or less (almost no effect)). The “K (Lolium multiflorum Lam.) herbicidal effect grade” value with Lolium multiflorum Lam. was 0 (Herbicidal ratio of 5% or less (almost no effect)). Moreover, the “A: Echinochloa oryzicola Vasing. (herbicidal effect grade)” value in [4] was 3 (Herbicidal ratio of 40% or more and less than 70%). In addition, the “C: Monochoria vaginalis” value in the data set on Monochoria vaginalis was 2 (Herbicidal ratio of 20% or more and less than 40%). Further, in the data set with Scirpus juncoides, the “B: Scirpus juncoides” value is 3 (Herbicidal ratio of 40% or more and less than 70%).
In the case of `Cc1nnc(NC(=O)c2ccc(C(F)(F)F)n3c(C4(C)CC4(Cl)Cl)nnc23)o1` (stereo not drawn) [1-105], in data set [1], the “a: transplanted Oryza sativa” value is recorded as 0 (Herbicidal ratio of 5% or less (almost no effect)). Further, in data set [2], the “A (Echinochloa oryzicola Vasing.) herbicidal ratio grade” value is 3 (Herbicidal ratio of 40% or more and less than 70%). Further, the “H (Echinochloa crus-galli var. crus-galli) herbicidal effect grade” value in data set [3] was 4 (Herbicidal ratio of 70% or more and less than 90%). Moreover, the “I (Avena fatua) herbicidal effect grade” value in the data set on Avena fatua is 1 (Herbicidal ratio of 5% or more and less than 20%). In addition, the “Q (Galium spurium) herbicidal effect grade” value with Galium spurium was 1 (Herbicidal ratio of 5% or more and less than 20%). In addition, in the data set on Lolium multiflorum Lam., the “K (Lolium multiflorum Lam.) herbicidal effect grade” value is 1 (Herbicidal ratio of 5% or more and less than 20%). For the same compound, the “A: Echinochloa oryzicola Vasing. (herbicidal effect grade)” value in data set [4] is recorded as 5 (Herbicidal ratio of 90% or more (almost completely withered)). Also, in the data set on Monochoria vaginalis, the “C: Monochoria vaginalis” value was 4 (Herbicidal ratio of 70% or more and less than 90%). Besides, the “B: Scirpus juncoides” value in the data set on Scirpus juncoides is 5 (Herbicidal ratio of 90% or more (almost completely withered)).
